Results taken from US11731965B2, “Tetrahydroprotoberberine compound, preparation method therefor and uses thereof, and pharmaceutical composition” (SHANGHAI INSTITUTE OF MATERIA MEDICA, CHINESE ACADEMY OF …, priority 2017, dated 2023).
Where a name gives a salt, the structure may show the parent alone.

Tests used:
[1] = tested on: PCP-induced high spontaneous activity in mice; test: PCP-induced high spontaneous activity test in mice; type: in vivo, Male ICR mice; conditions: dose by gavage that significantly reduces PCP (7 mg/kg ip) induced high spontaneous activity of mice vs model group
Experimental: PCP (phencylidine) was dissolved in physiological saline to prepare a 7 mg/kg solution. The test compound was formulated with a 0.5% CMC-Na solution to a solution with suitable concentration, ready-to-use. Male ICR mice were 18-22 g. Mice were randomly divided into a solvent control group, a model control group, a positive control group, and each test drug group during the test. There were 8 mice in each group. Mice in each group were given each test drug by gavage. 45 minutes after the test drug was administered, mice were injected with a PCP (7 mg/kg) solution intraperitoneally. The spontaneous, open field video analysis system was used to record the mouse movement trajectory within 45 min after administration of test drug or saline, and then the mouse movement trajectory within 75 min after PCP administration. Spontaneous, open field video analysis system was used to analyze the mouse's movement trajectory, and the total distance of the movement of the mice in each group was counted. The result was expressed as mean±SD. Results were analyzed by one-way analysis of variance.

[2] = target: T1, human recombinant D2 receptor (Homo sapiens, UniProt P14416); test: D2 antagonistic activity test (LANCE cAMP, antagonism of dopamine inhibition of cAMP production in HEK293 cells); type: cell-based; conditions: HEK293 cells expressing human recombinant D2 receptor; test concentration 0.1 nM to 10000 nM; read-out: D2 Antagonistic Activity (IC50, nmol/L)
T1 construct: expressed in transfected cells; host or cells: HEK293
T1 sequence (P14416 whole entry): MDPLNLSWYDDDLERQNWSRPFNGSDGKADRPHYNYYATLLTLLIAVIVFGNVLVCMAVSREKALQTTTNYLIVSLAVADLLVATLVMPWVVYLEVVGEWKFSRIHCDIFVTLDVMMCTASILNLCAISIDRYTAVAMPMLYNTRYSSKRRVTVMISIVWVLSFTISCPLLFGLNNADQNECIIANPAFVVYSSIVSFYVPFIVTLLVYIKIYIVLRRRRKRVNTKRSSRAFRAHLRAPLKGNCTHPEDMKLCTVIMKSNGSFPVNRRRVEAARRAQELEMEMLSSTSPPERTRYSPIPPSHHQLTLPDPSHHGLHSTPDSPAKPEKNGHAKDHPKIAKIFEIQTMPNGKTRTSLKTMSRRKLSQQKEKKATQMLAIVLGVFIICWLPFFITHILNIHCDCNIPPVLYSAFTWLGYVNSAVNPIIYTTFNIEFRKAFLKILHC
Experimental: LANCE™ cAMP 384 Kit (PerkinElmer, USA) was used to test the antagonism of the compound against the D1 receptor using the HEK293 cells expressing human recombinant D1 receptor. The D1 antagonism of the compound was evaluated by testing the antagonistic action of the compounds against dopamine on the induction of cAMP production in HEK293 cells. The cAMP concentration test was performed according to the method described in the kit instructions. The test concentration of the compound was 0.1 nM to 10000 nM. SCH23390 was used as a positive control. The IC50 was calculated by Excelfit software. The test results of some compounds were shown in Table 1. • 2) D2 antagonistic activity test LANCE™ cAMP 384 Kit (PerkinElmer, USA) was used to test the antagonism of the compound against the D2 receptor using the HEK293 cells expressing human recombinant D2 receptor. The D2 antagonism of the compound was evaluated by testing the antagonistic action of the compounds against dopamine on the inhibition of cAMP production in HEK293 cells. The cAMP concentration test was performed according to the method described in the kit instructions. The test concentration of the compound was 0.1 nM to 10000 nM. Risperidone was used as a positive control. The IC50 was calculated by Excelfit software. The test results of some compounds were shown in Table 1 (ND means the test was not performed).

[3] = target: T2, human recombinant D1 receptor (Homo sapiens, UniProt P21728); test: D1 antagonistic activity test (LANCE cAMP, antagonism of dopamine-induced cAMP production in HEK293 cells); type: cell-based; conditions: HEK293 cells expressing human recombinant D1 receptor; test concentration 0.1 nM to 10000 nM; read-out: D1 Antagonistic Activity (IC50, nmol/L)
T2 construct: expressed in transfected cells; host or cells: HEK293
T2 sequence (P21728 whole entry): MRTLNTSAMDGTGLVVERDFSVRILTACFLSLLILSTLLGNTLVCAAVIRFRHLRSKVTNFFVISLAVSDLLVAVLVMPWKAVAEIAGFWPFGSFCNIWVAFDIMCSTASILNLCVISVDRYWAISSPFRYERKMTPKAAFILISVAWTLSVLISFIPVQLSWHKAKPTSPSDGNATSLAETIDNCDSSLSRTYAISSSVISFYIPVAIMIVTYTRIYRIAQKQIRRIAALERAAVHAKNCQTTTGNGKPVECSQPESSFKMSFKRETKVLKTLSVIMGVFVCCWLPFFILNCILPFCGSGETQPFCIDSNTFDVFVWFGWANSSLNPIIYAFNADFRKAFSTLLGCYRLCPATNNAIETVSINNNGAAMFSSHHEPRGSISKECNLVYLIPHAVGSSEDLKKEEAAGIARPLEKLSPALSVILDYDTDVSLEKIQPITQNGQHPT
Experimental: • 1) D1 antagonistic activity test
The D1 antagonism of the compound was evaluated by testing the antagonistic action of the compounds against dopamine on the induction of cAMP production in HEK293 cells. The cAMP concentration test was performed according to the method described in the kit instructions. The test concentration of the compound was 0.1 nM to 10000 nM. SCH23390 was used as a positive control. The IC50 was calculated by Excelfit software.

Structure (SMILES)	Effective Dose [1] [mg/kg]	IC50 [2] [nmol/L]	IC50 [3] [nmol/L]
COc1cc2c(cc1C)[C@@H]1Cc3ccc(OC)c(OC)c3CN1CC2 [Example 1, (S)-2-methyl-3,9,10-trimethoxy-6,8,13,13a-tetrahydro-5H-dibenzo[a,g] quinolizine]	20	620	34.9
CCCc1cc2c(cc1OC)CCN1Cc3c(ccc(OC)c3OC)C[C@@H]21 [Example 2, (S)-2-n-propyl-3,9,10-trimethoxy-6,8,13,13a-tetrahydro-5H-dibenzo [a,g] quinolizine]	20	280	–
COc1cc2c(cc1C#N)[C@@H]1Cc3ccc(OC)c(OC)c3CN1CC2 [Example 4, (S)-2-cyano-3,9,10-trimethoxy-6,8,13,13a-tetrahydro-5H-dibenzo [a,g] quinolizine]	–	950	310
COc1cc2c(cc1C=O)[C@@H]1Cc3ccc(OC)c(OC)c3CN1CC2 [Example 6, (S)-2-formyl-3,9,10-trimethoxy-6,8,13,13a-tetrahydro-5H-dibenzo[a,g] quinolizine]	–	210	49
COc1cc2c(cc1CO)[C@@H]1Cc3ccc(OC)c(OC)c3CN1CC2 [Example 7, (S)-2-hydroxymethyl-3,9,10-trimethoxy-6,8,13,13a-tetrahydro-5H-dibenzo[a,g] quinolizine]	10	770	61
COc1cc2c(cc1N)[C@@H]1Cc3ccc(OC)c(OC)c3CN1CC2 [Example 13, (S)-2-amino-3,9,10-trimethoxy-6,8,13,13a-tetrahydro-5H-dibenzo [a,g] quinolizine hydrochloride]	10	280	140
COc1cc2c(cc1Br)[C@@H]1Cc3ccc(OC)c(OC)c3CN1CC2 [Example 15, (S)-2-bromo-3,9,10-tritmethoxy-6,8,13,13a-tetrahydro-5H-dibenzo [a,g] quinolizine]	–	550	120
C=Cc1cc2c(cc1OC)CCN1Cc3c(ccc(OC)c3OC)C[C@@H]21 [Example 17, (S)-2-vinyl-3,9,10-trimethoxy-6,8,13,13a-tetrahydro-5H-dibenzo [a,g] quinolizine]	20	150	240
COc1cc2c(cc1CCO)[C@@H]1Cc3ccc(OC)c(OC)c3CN1CC2 [Example 18, (S)-2-hydroxyethyl-3,9,10-trimethoxy-6,8,13,13a-tetrahydro-5H-dibenzo[a,g] quinolizine]	20	610	390
COc1cc2c(cc1OC)[C@@H]1Cc3ccc(OC)c(C#N)c3CN1CC2 [Example 19, (S)-2,3,10-trimethoxy-9-cyano-6,8,13,13a-tetrahydro-5H-dibenzo [a,g] quinolizine]	20	–	1300
COc1cc2c(cc1OC)[C@@H]1Cc3ccc(OC)c(C=O)c3CN1CC2 [Example 24, (S)-2,3,10-trimethoxy-9-formyl-6,8,13,13a-tetrahydro-5H-dibenzo [a,g] quinolizine]	–	–	1300
COc1cc2c(cc1OC)[C@@H]1Cc3ccc(OC)c(CO)c3CN1CC2 [Example 25, (S)-2,3,10-trimethoxy-9-hydroxymethyl-6,8,13,13a-tetrahydro-5H-dibenzo[a,g] quinolizine]	20	2300	1700
COc1cc2c(cc1OC)[C@@H]1Cc3ccc(C)c(OC)c3CN1CC2 [Example 26, (S)-2,3,9-trimethoxy-10-methyl-6,8,13,13a-tetrahydro-5H-dibenzo [a,g] quinolizine]	–	940	–
COc1cc2c(cc1OC)[C@@H]1Cc3ccc(C(N)=O)c(OC)c3CN1CC2 [Example 28, (S)-2,3,9-trimethoxy-10-carbamoyl-6,8,13,13a-tetrahydro-5H-dibenzo[a,g] quinolizine]	–	–	2160
COc1cc2c(cc1OC)[C@@H]1Cc3ccc(C=O)c(OC)c3CN1CC2 [Example 29, (S)-2,3,9-trimethoxy-10-formyl-6,8,13,13a-tetrahydro-5H-dibenzo [a,g] quinolizine]	–	2500	–
COc1cc2c(cc1OC)[C@@H]1Cc3ccc(CO)c(OC)c3CN1CC2 [Example 30, (S)-2,3,9-trimethoxy-10-hydroxymethyl-6,8,13,13a-tetrahydro-5H-dibenzo[a,g] quinolizine]	–	510	1080
COc1cc2c(cc1OC)[C@@H]1Cc3ccc(CNC(C)=O)c(OC)c3CN1CC2 [Example 32, (S)-2,3,9-trimethoxy-10-acetaminomethyl-6,8,13,13a-tetrahydro-5H-dibenzo[a,g] quinolizine]	–	663	–
COc1cc2c(cc1N)[C@@H]1Cc3ccc(N)c(OC)c3CN1CC2 [Example 33, (S)-2,10-diamino-3,9-dimethoxy-6,8,13,13a-tetrahydro-5H-dibenzo [a,g] quinolizine]	20	440	270
COc1cc2c(cc1NC(C)=O)[C@@H]1Cc3ccc(NC(C)=O)c(OC)c3CN1CC2 [Example 34, (S)-2,10-di(acetamino)-3,9-dimethoxy-6,8,13,13a-tetrahydro-5H-dibenzo[a,g] quinolizine]	20	–	–
COc1ccc2c(c1OC)CN1CCc3cc4c(cc3C1C2)C(=O)NC4=O (stereo not drawn) [Example 36, 9,10-dimethoxy-5,6,13,13a-tetrahydroisoquinolino[3,2-a]pyrrolo [3,4-g]isoquinoline-1,3(2H,8H)-dione]	10	427	26.2
COc1ccc2c(c1OC)CN1CCc3cc(OC)c4[nH]c(=S)[nH]c4c3[C@@H]1C2 [Example 41, (S)-4,10,11-trimethoxy-3,6,7,9,14,14a-Hexahydroimidazo[4,5-h] isoquinolino [3,2-a]isoquinoline-2(1H)-thione]	3	20	–
COc1ccc2c(c1OC)CN1CCc3cc(OC)c4nn[nH]c4c3[C@@H]1C2 [Example 43, (S)-4,10,11-trimethoxy-1,6,7,9,14,14a-hexahydroisoquinolino[3,2-a] [1,2,3]triazolo[4,5-h]isoquinoline]	–	54	–
COc1ccc2c(c1OC)CN1CCc3cc4nc[nH]c4cc3C1C2 (stereo not drawn) [Example 44, 9,10-Dimethoxy-1,5,6,8,13,13a-hexahydroimidazo[4,5-g]isoquinolino [3,2-a]isoquinoline]	–	139	672
COc1ccc2c(c1OC)CN1CCc3cc4ncoc4cc3C1C2 (stereo not drawn) [Example 45, 9,10-Dimethoxy-6,8,13,13a-tetrahydro-5H-isoquinolino[3,2-a] oxazolo[4,5-g]isoquinoline]	–	–	116
COc1ccc2c(c1OC)CN1CCc3ccc4oc(=O)[nH]c4c3C1C2 (stereo not drawn) [Example 49, 10,11-Dimethoxy-6,7,14,14a-tetrahydro-1H-isoquinolino[3,2-a] oxazolo[5,4-h] isoquinoline-2 (9H)-one]	10	–	219
COc1ccc2c(c1OC)CN1CCc3ccc4c(c3C1C2)NC(=O)CO4 (stereo not drawn) [Example 50, 11,12-Dimethoxy-3,7,8,10,15,15a-hexahydroisoquinolino[3,2-a][1,4] oxazino [2,3-h]isoquinoline-2(1H)-one]	10	–	855
COc1cc2c(cc1OC(F)F)[C@@H]1Cc3ccc(OC)c(OC)c3CN1CC2 [Example 51, (S)-2-(difluoromethoxy)-3,9,10-trimethoxy-6,8,13,13a-tetrahydro-5H-dibenzo[a,g] quinolizine]	–	390	–
COc1cc2c(cc1OCCO)[C@@H]1Cc3ccc(OCCO)c(OC)c3CN1CC2 [Example 55, (S)-2,10-di(hydroxyethoxy)-3,9-dimethoxy-6,8,13,13a-tetrahydro-5H-dibenzo [a,g] quinolizine]	–	–	443
